Assay results taken from patent publication US20250320205A1, “STAT6 DEGRADERS” (Gilead Sciences, Inc., priority 2024, published 2025).

target: T1, STAT6 (Homo sapiens, UniProt P42226); assay: STAT6 Degrader Assay (HiBiT based, HeLa LgBiT clone 4.14 cells); format: cell-based; settings: HeLa; maximal STAT6 degradation
T1 construct: These cells express endogenous STAT6; host or cells: HeLa LgBiT clone 4.14 (CRISPR knock-in of HiBiT into the endogenous STAT6 gene)
T1 sequence (P42226 1-847): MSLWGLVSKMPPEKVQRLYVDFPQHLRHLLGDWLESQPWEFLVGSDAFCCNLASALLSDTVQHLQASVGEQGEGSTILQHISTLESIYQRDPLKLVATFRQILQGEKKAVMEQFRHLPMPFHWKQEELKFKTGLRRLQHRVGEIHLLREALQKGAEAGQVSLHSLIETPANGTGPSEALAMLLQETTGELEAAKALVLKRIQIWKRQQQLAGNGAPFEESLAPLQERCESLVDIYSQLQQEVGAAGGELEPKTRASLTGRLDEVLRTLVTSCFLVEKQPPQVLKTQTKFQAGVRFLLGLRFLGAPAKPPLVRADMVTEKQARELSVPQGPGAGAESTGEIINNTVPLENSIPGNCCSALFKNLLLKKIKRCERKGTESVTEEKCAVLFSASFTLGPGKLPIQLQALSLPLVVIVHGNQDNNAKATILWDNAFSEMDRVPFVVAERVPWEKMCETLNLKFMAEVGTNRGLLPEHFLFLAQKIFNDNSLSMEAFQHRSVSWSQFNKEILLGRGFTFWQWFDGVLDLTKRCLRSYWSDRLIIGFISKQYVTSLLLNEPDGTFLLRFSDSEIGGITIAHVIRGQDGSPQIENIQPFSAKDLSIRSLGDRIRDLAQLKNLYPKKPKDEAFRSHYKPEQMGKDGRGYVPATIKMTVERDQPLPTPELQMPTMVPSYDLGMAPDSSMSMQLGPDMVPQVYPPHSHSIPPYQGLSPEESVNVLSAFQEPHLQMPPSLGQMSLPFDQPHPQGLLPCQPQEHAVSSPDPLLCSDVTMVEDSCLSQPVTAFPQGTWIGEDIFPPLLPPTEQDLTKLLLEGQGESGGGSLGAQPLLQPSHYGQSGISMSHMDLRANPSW
Procedure: This was a HiBit based assay. A HeLa cell line stably transfected with a small protein, LgBit (Large Bit) was obtained from Promega. These cells express endogenous STAT6. A small 11 amino acid gene sequence (HiBiT) was inserted in the STAT6 gene using CRISPR technology. Once STAT6 protein is expressed in the cells, the HiBiT sequence will bind the LgBit in the cells resulting in a functional NanoBiT protein, giving a luminescent tag to STAT6. Single cell clones were prepared and the clone 4.14 was selected for the assay based on that clone showing high luminescence, high STAT6 phosphorylation upon stimulation with IL-4, and inhibition of luminescence when cells were treated with STAT6 siRNA. HeLa LgBiT clone 4.14 cells were suspended in DMEM with 10% FCS, 1% Pen/Strep, Na-pyrovate and Hygromycin B, at a concentration of 1.25*105 cells pr mL. 5000 cells were added pr well of a 384 well plate and 20 nL of compound was added by Echo® liquid handler. NN6394A (terfenadine, a toxic compound) was added to control wells at 50 μM concentration to establish the assay window. In these wells the cells are dead which equals 100% degradation of STAT6. After 4-24 h of incubation at 37° C. under 5% CO2/95% air, 5 μL substrate (Nano-GLO®) was added to the wells and the plates were centrifuged and incubated for 0.5 h. The luminescence in the wells as a measure of non-degraded STAT6 was measured in a plate reader (BMG Pherastar FSX). The measured DC50 (in nM) was determined.

Compound	Emax
CNc1ccn(-c2ccnc3c2cc(CN2CCC(c4c(C)cc(C(=O)N5CCN(C(=O)CN6CCN(c7ccc(NC8CCC(=O)NC8=O)cc7F)CC6)CC5)cc4F)CC2)n3C)c(=O)c1 (centres unmarked) [Example 2g132, 3-((3-fluoro-4-(4-(2-(4-(3-fluoro-5-methyl-4-(1-((1-methyl-4-(4-(methylamino)-2-oxopyridin-1(2H)-yl)-1H-pyrrolo[2,3-b]pyridin-2-yl)-methyl)piperidin-4-yl)benzo-yl)piperazin-1-yl)-2-oxo-ethyl)piperazin-1-yl)phenyl)-amino)piperidine-2,6-dione]	40 to 50%
Cc1cc(C(=O)N(C)c2ccc(C3CCN(c4ccc(NC5CCC(=O)NC5=O)cc4F)CC3)cc2)cc(F)c1C1=CCN([C@H](C)c2cc3c(-n4ccc5[nH]ccc5c4=O)ccnc3n2C)CC1 (stereo partly drawn) [Example 2g134, N-(4-(1-(4-((2,6-dioxopiper-idin-3-yl)amino)-2-fluoro-phenyl)piperidin-4-yl)phen-yl)-3-fluoro-N,5-dimethyl-4-(1-((R)-1-(1-methyl-4-(4-oxo-1,4-dihydro-5H-pyrrolo[3,2-c]pyridin-5-yl)-1H-pyrrolo [2,3-b]pyridin-2-yl)ethyl)-1,2,3,6-tetrahydropyridin-4-yl)benzamide]	50 to 60%

same assay, conditions: geometric mean across assay runs and compound batches; DC50 provided for test compounds with >80% Emax; read-out: STAT6 degradation DC50

Compound	DC50
CNc1ccn(-c2ccnc3c2cc([C@H](C)N2CC=C(c4c(C)cc(C(=O)N5CCC(CN6CCN(c7ncc(N[C@@H]8CCC(=O)NC8=O)cc7F)C[C@@H]6C)CC5)cc4F)CC2)n3C)c(=O)c1 (single isomer, unassigned) [Example 2g96]	14 nM
CNc1ccn(-c2ccnc3c2cc([C@H](C)N2CC=C(c4c(C)cc(C(=O)N5CCn6nc(CN7CCC(c8ccc(N[C@@H]9CCC(=O)NC9=O)cc8F)CC7)cc6C5)cc4F)CC2)n3C)c(=O)c1 (single isomer, unassigned) [Example 2g17]	0.2 nM
CNc1ccn(-c2ccnc3c2cc([C@H](C)N2CC=C(c4c(C)cc(C(=O)N5CCC(CN6CCN(c7ccc(NC8CCC(=O)NC8=O)cc7F)C[C@H]6C)CC5)cc4F)CC2)n3C)c(=O)c1 (stereo partly drawn) [Example 2g46, 3-((3-fluoro-4-((R)-4-((1-(3-fluoro-5-methyl-4-(1-((S)-1-(1-methyl-4-(4-(methyl-amino)-2-oxopyridin-1(2H)-yl)-1H-pyrrolo[2,3-b]pyridin-2-yl)ethyl)-1,2,3,6-tetrahydro-pyridin-4-yl)benzoyl)piperi-din-4-yl)methyl)-3-methyl-piperazin-1-yl)phenyl)amino)-piperidine-2,6-dione]	3.1 nM
Cc1cc(C(=O)N2CCC(CN3CCN(c4ccc(NC5CCC(=O)NC5=O)cc4F)CC3)CC2)cc(F)c1C1CCN(Cc2cc3c(-n4ccc5c(c4=O)CCN5)ccnc3n2C)CC1 (centres unmarked) [Example 2g36, 3-((3-fluoro-4-(4-((1-(3-fluoro-5-methyl-4-(1-((1-methyl-4-(4-oxo-1,2,3,4-tetrahydro-5H-pyrrolo[3,2-c]pyridin-5-yl)-1H-pyrrolo[2,3-b]pyridin-2-yl)methyl)piperi-din-4-yl)benzoyl)piperidin-4-yl)methyl)piperazin-1-yl)-phenyl)amino)piperidine-2,6-dione]	35.7 nM
CNc1cc(=O)n(-c2ccnc3c2cc([C@H](C)N2CC=C(c4c(C)cc(C(=O)N5CCC(CN6CCN(c7ccc(N[C@H]8CCC(=O)NC8=O)cc7F)C[C@H]6C)CC5)cc4F)CC2)n3C)cc1F (single isomer, unassigned) [Example 2g29]	3.6 nM
CNc1cc(=O)n(-c2ccnc3c2cc([C@H](C)N2CC=C(c4c(C)cc(C(=O)N5CCC(CN6CCN(c7ccc(NC8CCC(=O)NC8=O)cc7F)C[C@H]6C)CC5)cc4F)CC2)n3C)cc1F (stereo partly drawn) [Example 2g27, 3-((3-fluoro-4-((R)-4-((1-(3-fluoro-4-(1-((S)-1-(4-(5-fluoro-4-(methylamino)-2-oxopyridin-1(2H)-yl)-1-meth-yl-1H-pyrrolo[2,3-b]pyridin-2-yl)ethyl)-1,2,3,6-tetrahydro-pyridin-4-yl)-5-methylbenz-oyl)piperidin-4-yl)methyl)-3-methylpiperazin-1-yl)phenyl)-amino)piperidine-2,6-dione]	4.2 nM
